This is an account of results in publication PMC3236199, “Development of Derivatives of 3, 3′-Diindolylmethane as Potent Leishmania donovani Bi-Subunit Topoisomerase IB Poisons” (PLoS ONE, 2011).

The subject of experiment [1] is DIM resistant DR50 promastigotes. The experiment can be described thus: Change in IC50 on prolonged exposure of DIM resistant promastigotes. The experiment is classed as cell-based. Particulars: Leishmania donovani. The method, then:
L. donovani strain AG83 and DIM resistant parasite DR50 promastigotes were grown at 22°C in M199 liquid media supplemented with 10% FBS as described. Axenic amastigotes were cultured in modified M199 medium (pH 5.3) supplemented with 10 mM sodium succinate, 40 mM HEPES and 25% FCS and maintained at 37°C with 5% CO2.The effect of drugs on the viability of Leishmania parasites was determined by direct microscopic counting using light microscope (40× objective) in a haemocytometer. The cells at the exponential phase were collected and transferred into 24-well plate (3.5×10^6 cells per well). The cells were then incubated for 12 h in the presence of various concentrations of DIM, DPDIM, DMDIM and DMODIM (1, 5, 10, 20 and 50 µM). For other experiments, 10^4 cells were taken and grown in presence of the respective derivatives for a period of 30 days. For each 5 day interval, a small amount of aliquots were taken out. After incubation the cells were centrifuged and cell pellet was washed with PBS (1×) twice and finally suspended in 1 ml PBS (1×). […] One drop of the mixture was transferred to haemocytometer and the clear (live) and blue (dead) cells were counted. The total number of viable cells in aliquot was calculated by multiplying the total number of viable cells by 2 (the dilution factor for trypan blue). […] Percentages of viable cells were calculated using the formula: [drawing 1]
Figure 2 Effect of DIM-derivatives on Leishmania parasites. Growth of L. donovani AG83 promastigotes (A) and DIM resistant promastigotes (B) were monitored in presence of increasing concentrations (1, 5, 10, 20 and 50 µM) of DIM, DPDIM, DMDIM and DMODIM for 12 h. […] Change in IC50 values after a prolong exposure to DIM derivatives (C) has been assessed as described in Materials and Methods. After every 5 day a small aliquot was taken out and number of viable promastigotes was counted for each concentration. IC50 values have been determined from them using Graph Pad Prsim ver 5.0 software and a graphical plot was generated over time. […]

The subject of experiment [2] is F270L mutant topoisomerase I. The conditions noted are these: cited from earlier work.
Experiment [3] deals with L. donovani topoisomerase II. Put plainly: Immunoband depletion assay, topoisomerase II. The experiment is classed as cell-based, Leishmania donovani. The conditions noted are these: 50 µM, antibody against ATPase domain of topoisomerase II. The procedure:
Leishmania cells (3×10^7) were cultured in absence and presence of the drugs. Nuclear fractions were isolated as described. Briefly, cells were suspended in hypotonic buffer (10 mM Tris-HCl, pH 7.5, 1 mM EDTA, 0.1 mM EGTA, 1 mM PMSF, 1 mM benzamidine hydrochloride and 5 mM DTT) and homogenized. The homogenate was centrifuged for 10 min at 10,000 g. The pellets were washed and used as the source of nuclear fraction. Thereafter, the nuclear fractions were lysed with 1% SDS and subjected to SDS-PAGE (10%). The proteins were electrophoretically transferred to nitrocellulose membranes and immumobloting of immobilized proteins were carried out using a rabbit polyclonal antibody raised against LdTOP1S for topoisomerase I and ATPase domain of L. donovani topoisomerase II [8].
To rule out the topoisomerase II mediated cleavable complex stabilization by the derivatives, we have carried out immunoband depletion assay with antibody raised against ATPase domain (43 kDa) of L. donovani topoisomerase II.
Supplementary file pone.0028493.s001.tif: Figure S1 Stabilization of topoisomerase-II mediated cleavable complex was determined by immunoband depletion assay. Immunoband depletion of L. donovani topoisomerase II, using an antibody raised against LdTOP2 (ATPase domain, 43 kDa). […]

The target in a further experiment is CT DNA. Details: method as in PMID 17922678. The conditions noted are these: interaction with DNA; read-out: dissociation constant (KD); cited from earlier work.

What is called IC50 is the midpoint of a concentration-inhibition curve. High values mean lower potency, low ones higher potency. `COc1ccc2[nH]cc(Cc3c[nH]c4ccc(OC)cc34)c2c1` [DMODIM, 5,5′-dimethoxy 3,3′-diindolyl methane] displayed an IC50 in experiment [1] (24 h) of 7.26 µM.

Usually Kd stands for the constant that tells how readily two partners part at equilibrium. Regarding `c1ccc2c(Cc3c[nH]c4ccccc34)c[nH]c2c1` [DIM, 3, 3′-diindolyl methane, reference compound], the “sensitivity of F270L topoisomerase I mutant” value in experiment [2] is “insensitive”. The “stabilization of topoisomerase II mediated cleavage complex” value in experiment [3] is recorded as “do not stabilize cleavage complex formation”. At CT DNA, the Kd was 22 µM.

For `c1ccc(-c2[nH]c3ccccc3c2Cc2c(-c3ccccc3)[nH]c3ccccc23)cc1` [DPDIM, 2,2′-diphenyl 3,3′-diindolyl methane], the IC50 in experiment [1] stood at 0.05 µM; in experiment [1] (24 h) it was 2.3 µM.
